Experimental data published in PubChem BioAssay (NCI).
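Interpolation was linear, between the two tested concentrations surrounding the appropriate level; five concentrations were tested over 48 hours in 96-well plates. TGI is the concentration that stops growth completely.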

Columns and labels:
Experiment in all cases: DTP human tumour cell line panel, 48 h
[1] = system: SK-OV-3 ovarian
[2] = system: SF-295 CNS
[3] = system: 786-0 renal
[4] = system: U251 CNS
[5] = system: HT29 colon
[6] = system: NCI-H522 lung
[7] = system: MDA-N
[8] = system: CCRF-CEM leukemia
[9] = system: EKVX NSCLC
[10] = system: CAKI-1 renal
[11] = system: ACHN renal
[12] = system: OVCAR-3 ovarian
[13] = system: RXF 393 renal
[14] = system: BT-549 breast
[15] = system: OVCAR-8 ovarian
[16] = system: T-47D breast
[17] = system: SN12C renal
[18] = system: DU-145 prostate
[19] = system: M14 melanoma
[20] = system: SK-MEL-5 melanoma
[21] = system: IGROV1 ovarian
[22] = system: TK-10 renal
[23] = system: SK-MEL-2 melanoma
[24] = system: UO-31 renal
[25] = system: A498 renal
[26] = system: SW-620 colon
[27] = system: HCT-15 colon
[28] = system: OVCAR-5 ovarian
[29] = system: HCT-116 colon
[30] = system: MOLT-4 leukemia
[31] = system: HCC-2998 colon
[32] = system: HOP-62 NSCLC
[33] = system: UACC-257 melanoma
[34] = system: NCI-H23 lung
[35] = system: SF-268 CNS
[36] = system: PC-3 prostate
[37] = system: MALME-3M melanoma
[38] = system: SF-539 CNS
[39] = system: NCI-H460 lung
[40] = system: KM12 colon
[41] = system: HL-60(TB) leukemia
[42] = system: SK-MEL-28 melanoma
[43] = system: OVCAR-4 ovarian
[44] = system: MCF7 breast
[45] = system: SNB-75 CNS
[46] = system: A549 NSCLC
[47] = system: RPMI-8226 leukemia
[48] = system: K-562 leukemia
[49] = system: COLO 205 colon
[50] = system: SR leukemia
[51] = system: LOX IMVI melanoma
[52] = system: MDA-MB-435
[53] = system: SNB-19 CNS
[54] = system: HOP-92 NSCLC
[55] = system: NCI/ADR-RES ovarian
[56] = system: HS 578T breast
[57] = system: MDA-MB-231 breast
[58] = system: UACC-62 melanoma

SMILES: CC1=C(Cc2ccccc2)C(Cc2ccccc2)=C(C)S1=O
- TGI [1]: > 100 µM
- TGI [2]: > 100 µM
- TGI [3]: 71 µM
- TGI [4]: > 100 µM
- TGI [5]: 39.4 µM
- TGI [6]: 78.8 µM
- TGI [7]: 71.2 µM
- TGI [8]: 49.9 µM
- TGI [9]: 46.9 µM
- TGI [10]: > 100 µM
- TGI [11]: > 100 µM
- TGI [12]: > 100 µM
- TGI [13]: 55.1 µM
- TGI [14]: 92.4 µM
- TGI [15]: > 100 µM
- TGI [16]: 59.1 µM
- TGI [17]: 84.1 µM
- TGI [18]: > 100 µM
- TGI [19]: 46.3 µM
- TGI [20]: 30.1 µM
- TGI [21]: > 100 µM
- TGI [22]: 76.2 µM
- TGI [23]: 35.1 µM
- TGI [24]: > 100 µM
- TGI [25]: 63.7 µM
- TGI [26]: > 100 µM
- TGI [27]: > 100 µM
- TGI [28]: 73.2 µM
- TGI [29]: 74.7 µM
- TGI [30]: 41.5 µM
- TGI [31]: 42.4 µM
- TGI [32]: > 100 µM
- TGI [33]: 48.5 µM
- TGI [34]: 95.7 µM
- TGI [35]: > 100 µM
- TGI [36]: 54.1 µM
- TGI [37]: > 100 µM
- TGI [38]: > 100 µM
- TGI [39]: 99.1 µM
- TGI [40]: 36.5 µM
- TGI [41]: 34.6 µM
- TGI [42]: > 100 µM
- TGI [43]: > 100 µM
- TGI [44]: 60 µM
- TGI [45]: 54.6 µM
- TGI [46]: > 100 µM
- TGI [47]: 54.4 µM
- TGI [48]: > 100 µM
- TGI [49]: 43.1 µM
- TGI [50]: 53.2 µM
- TGI [51]: 50.9 µM
- TGI [52]: 35.6 µM
- TGI [53]: > 100 µM
- TGI [54]: > 100 µM
- TGI [55]: 51.7 µM
- TGI [56]: > 100 µM
- TGI [57]: 52.3 µM
- TGI [58]: 34.3 µM

SMILES: COc1ccc(Nc2nc3cc(C(F)(F)F)ccc3n3cccc23)cc1OC
- TGI [1]: 92.1 µM
- TGI [2]: 30.1 µM
- TGI [3]: 24.7 µM
- TGI [4]: 28.6 µM
- TGI [5]: 24.1 µM
- TGI [6]: 41.5 µM
- TGI [7]: 29.3 µM
- TGI [8]: > 100 µM
- TGI [9]: 58.5 µM
- TGI [10]: > 100 µM
- TGI [11]: 74.3 µM
- TGI [12]: 54 µM
- TGI [13]: 29 µM
- TGI [14]: 56.1 µM
- TGI [15]: 87.8 µM
- TGI [16]: 34.9 µM
- TGI [18]: 52.6 µM
- TGI [19]: 31.3 µM
- TGI [20]: 27.6 µM
- TGI [21]: > 100 µM
- TGI [22]: 49 µM
- TGI [23]: 30.9 µM
- TGI [24]: 63.4 µM
- TGI [25]: 32.6 µM
- TGI [26]: > 100 µM
- TGI [27]: 56.1 µM
- TGI [28]: 58 µM
- TGI [29]: 27.4 µM
- TGI [30]: 37.8 µM
- TGI [31]: 27.3 µM
- TGI [32]: 48.7 µM
- TGI [33]: 34.8 µM
- TGI [34]: 43.2 µM
- TGI [35]: > 100 µM
- TGI [36]: 26.8 µM
- TGI [37]: 54.4 µM
- TGI [38]: 34 µM
- TGI [39]: 28.7 µM
- TGI [40]: 34 µM
- TGI [41]: 67 µM
- TGI [42]: > 100 µM
- TGI [44]: 51.5 µM
- TGI [45]: 39.5 µM
- TGI [46]: 50.8 µM
- TGI [47]: 55.1 µM
- TGI [48]: 52.6 µM
- TGI [50]: 34.9 µM
- TGI [51]: 15.8 µM
- TGI [52]: 36.3 µM
- TGI [53]: 60.9 µM
- TGI [54]: 47.5 µM
- TGI [55]: 50.1 µM
- TGI [56]: > 100 µM
- TGI [57]: 36.5 µM
- TGI [58]: 28.9 µM
